Measured values from US11415579B2, “Assay for measuring a rate of reaction between a target and a ligand candidate” (Imperial College Innovations Ltd., priority 2016, dated 2022).
pKd: −log10 of the molar value.

Key:
[1] = target: T1, Cdk2(T182C) (C177A) (Homo sapiens, UniProt P24941, C177A/T182C); test: Kinetic thiol consumption assay with Cdk2 mutant T182C; format: binding; design: key to Rate enhancement, Cdk2 T182C: rate constant with Cdk2 ÷ rate constant with model thiol (fold); conditions: additional mutation C177A; for Rate constant with Cdk2 T182C: Protein: Cdk2, cysteine position T182C, in h^-1
T1 construct: poly-histidine; made in house; host or cells: E. coli
Outline: (§1)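 His-tagged single-surface-cysteine Cdk2 mutants (C177A background) from E. coli, 5 μM in degassed phosphate buffer pH 8, pre-treated with immobilized TCEP beads. Fluorescence (ex/em 380/470 nm) read after 1 h at room temperature, normalized to DMSO/thiol-only control; first-order decay fits gave rate constants, divided by model-thiol rate for rate enhancement.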

[2] = target: T2, Cdk2[C177A, F80C, K278C] (Homo sapiens, UniProt P24941, C177A/F80C/K278C); test: Kinetic thiol consumption assay with mutant Cdk2 as model thiol; format: binding; design: unit not given here; conditions: 500 μM ligand, 5 μM thiol, phosphate buffer pH 8
T2 construct: poly-histidine; made in house; host or cells: E. coli
Outline: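 Model thiol: His-tagged human Cdk2 C177A/F80C/K278C (two engineered surface cysteines), E. coli-expressed, 5 μM in degassed phosphate buffer pH 8 with immobilized TCEP beads (2% v/v). Fluorescence (ex/em 380/470 nm) followed over time at room temperature, normalized to DMSO/thiol control. First-order decay fit gives rate constants.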

[3] = target: T3, Cdk2(S276C) (C177A) (Homo sapiens, UniProt P24941, C177A/S276C); test: Kinetic thiol consumption assay with Cdk2 mutant S276C; format: binding; design: key to Rate enhancement, Cdk2 S276C: rate constant with Cdk2 ÷ rate constant with model thiol (fold); conditions: additional mutation C177A; for Rate constant with Cdk2 S276C: Protein: Cdk2, cysteine position S276C, in h^-1
T3 construct: poly-histidine; made in house; host or cells: E. coli
Outline: as §1

[4] = target: T4, human cyclin-dependent kinase 2 (Cdk2) (Homo sapiens, UniProt P24941); test: Kinetic thiol consumption assay with wild type Cdk2 (C177); format: binding; design: key to Rate enhancement, Cdk2 WT: k(Cdk2) divided by k(model thiol); Rate constant with Cdk2 (k(Cdk2)): unit not given here; conditions: for Rate constant with Cdk2 (k(Cdk2)): 500 μM ligand, 5 μM thiol, phosphate buffer pH 8; for Rate enhancement, Cdk2 WT: no additional mutations; for Rate constant with Cdk2 WT: Protein: Cdk2, cysteine position WT, in h^-1; for k(Cdk2)/k(Cdk2_mut) rate enhancement: model thiol Cdk2[C177A, F80C, K278C]; for k(Cdk2)/k(GSH) rate enhancement: model thiol glutathione
T4 construct: poly-histidine; made in house; host or cells: E. coli
Outline: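 His-tagged human Cdk2 (single surface cysteine C177), expressed in E. coli, or a model thiol at 5 μM in degassed phosphate buffer pH 8 was pre-treated with immobilized TCEP beads (2% v/v) before acrylamide addition. Fluorescence (ex/em 380/470 nm) was read after 1 h at room temperature, normalized to DMSO/thiol-only control and plotted versus time.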

[5] = target: T5, Cdk2(S181C) (C177A) (Homo sapiens, UniProt P24941, C177A/S181C); test: Kinetic thiol consumption assay with Cdk2 mutant S181C; format: binding; design: key to Rate enhancement, Cdk2 S181C: rate constant with Cdk2 ÷ rate constant with model thiol (fold); conditions: additional mutation C177A; for Rate constant with Cdk2 S181C: Protein: Cdk2, cysteine position S181C, in h^-1
T5 construct: poly-histidine; made in house; host or cells: E. coli
Outline: as §1

[6] = Kinetic thiol consumption assay with model thiol glutathione; format: physicochemical; design: Rate constant with glutathione (k(GSH)): unit not given here; conditions: for Rate constant with glutathione (k(GSH)): 500 μM ligand, 5 μM thiol, phosphate buffer pH 8; for Rate constant with Glutathione: Protein: Glutathione, cysteine position NA, in h-1
Outline: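 Rate constants for acrylamide reaction with 5 μM glutathione come from first-order exponential fits of normalized fluorescence decay (ex 380, em 470 nm). Reactions run in degassed phosphate buffer at pH 8 containing TCEP beads, room temperature.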

[7] = target: T6, Cdk2(H71C) (C177A) (Homo sapiens, UniProt P24941, C177A/H71C); test: Kinetic thiol consumption assay with Cdk2 mutant H71C; format: binding; design: key to Rate enhancement, Cdk2 H71C: rate constant with Cdk2 ÷ rate constant with model thiol (fold); conditions: additional mutation C177A; for Rate constant with Cdk2 H71C: Protein: Cdk2, cysteine position H71C, in h^-1
T6 construct: poly-histidine; made in house; host or cells: E. coli
Outline: as §1

[8] = target: T7, Cdk2(N272C) (C177A) (Homo sapiens, UniProt P24941, C177A/N272C); test: Kinetic thiol consumption assay with Cdk2 mutant N272C; format: binding; design: key to Rate enhancement, Cdk2 N272: rate constant with Cdk2 ÷ rate constant with model thiol (fold); conditions: for Rate enhancement, Cdk2 N272: Cdk2 N272, additional mutation C177A; for Rate constant with Cdk2 N272C: Protein: Cdk2, cysteine position N272C, additional mutation C177A, in h^-1
T7 construct: poly-histidine; made in house; host or cells: E. coli
Outline: as §1

[9] = target: T8, Cdk2(R122C) (C177A) (Homo sapiens, UniProt P24941, C177A/R122C); test: Kinetic thiol consumption assay with Cdk2 mutant R122C; format: binding; design: key to Rate enhancement, Cdk2 R122C: rate constant with Cdk2 ÷ rate constant with model thiol (fold); conditions: additional mutation C177A; for Rate constant with Cdk2 R122C: Protein: Cdk2, cysteine position R122C, in h-1
T8 construct: poly-histidine; made in house; host or cells: E. coli
Outline: as §1

[10] = target: T9, Cdk2(C177A, F80C) (Homo sapiens, UniProt P24941, C177A/F80C); test: Kinetic thiol consumption assay with Cdk2 mutant F80C, incl. kobs versus concentration (Kd, k2); format: binding; design: key to Rate enhancement, Cdk2 F80C: Cdk2 rate constant divided by model-thiol rate constant; conditions: for Rate enhancement, Cdk2 F80C / Rate constant with Cdk2 F80C: additional mutation C177A; for Rate constant with Cdk2 F80C: Protein: Cdk2, cysteine position F80C, in h^-1
T9 construct: poly-histidine; made in house; host or cells: E. coli
Outline: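 His-tagged Cdk2(C177A/F80C) from E. coli or model thiol, 5 μM in degassed phosphate buffer pH 8 with TCEP beads, reacted with acrylamide ligands; fluorescence (ex/em 380/470 nm) normalized to DMSO control and fitted to first-order decay for kobs. Kd and k2 obtained from hyperbolic fit of kobs versus ligand concentration.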

[11] = hyperbolic fit of kobs against ligand concentration

| Rate enhancement, Cdk2 T182C [1] | Rate constant with Cdk2 T182C [1] | Rate constant with Cdk2[C177A, F80C, K278C] (k(Cdk2_mut)) [2] | Rate enhancement, Cdk2 S276C [3] | Rate constant with Cdk2 S276C [3] | Rate constant with Cdk2 (k(Cdk2)) [4] | Rate enhancement, Cdk2 WT [4] | Rate constant with Cdk2 WT [4] | k(Cdk2)/k(Cdk2_mut) rate enhancement [4] | k(Cdk2)/k(GSH) rate enhancement [4] | Rate enhancement, Cdk2 S181C [5] | Rate constant with Cdk2 S181C [5] | Rate enhancement, Cdk2 H71C [7] | Rate enhancement, Cdk2 N272 [8] | Rate constant with Cdk2 N272C [8] | Rate enhancement, Cdk2 R122C [9] | Rate constant with Cdk2 R122C [9] | Rate enhancement, Cdk2 F80C [10] | Structure (SMILES) | Rate constant with glutathione (k(GSH)) [6] | Rate constant with Glutathione [6] | other results |
| --- | --- | --- | --- | --- | --- | --- | --- | --- | --- | --- | --- | --- | --- | --- | --- | --- | --- | --- | --- | --- | --- |
| 13.51 | 0.09852 | 0.00127 | 0.5204 | 0.003794 | 0.00423 | 1.547 | 0.01128 | 3.343 | 1.018 | 0.8523 | 0.006213 | 0.4785 | 1.029 | 0.007502 | 0.2126 | 0.00155 | 0 | C=CC(=O)NC1c2ccccc2Oc2ccccc21 [CA-171] | 0.00416 | 0.00729 | Rate constant with Cdk2 H71C [7]: 0.003488 |
| 5.254 | 0.0266 | 0.00663 | 0.2765 | 0.0014 | 0.00448 | 1.245 | 0.006301 | 0.6762 | 0.8802 | 1.564 | 0.007918 | 0 | 0.3073 | 0.001556 | 0.606 | 0.003068 | 1.223 | C=CC(=O)N1CCCC1c1ccc(OC)cc1 (stereo not drawn) [EL-1062] | 0.00509 | 0.005063 | Rate constant with Cdk2 F80C [10]: 0.006191 |
| 12.3 | 0.1865 | 0.1952 | 1.763 | 0.02673 | 0.05015 | 3.308 | 0.05015 | 0.2569 | 3.293 | 1.495 | 0.02267 | 1.964 | 1.739 | 0.02636 | 0.9697 | 0.0147 | 63.59 | C=CC(=O)Nc1ccc(-c2ncccn2)cc1 [CA-037] | 0.01523 | 0.01516 | Rate constant with Cdk2 H71C [7]: 0.02977; hit classification against Cdk2(F80C, C177A) [10]: hit ligands; Rate constant with Cdk2 F80C [10]: 0.964; kobs ([10]; [CA37] 0.02 mM): 0.00007107 min⁻¹; kobs ([10]; [CA37] 0.05 mM): 0.000271 min⁻¹; kobs ([10]; [CA37] 0.1 mM): 0.0006704 min⁻¹; kobs ([10]; [CA37] 0.2 mM): 0.001313 min⁻¹; kobs ([10]; [CA37] 0.35 mM): 0.002029 min⁻¹; kobs ([10]; [CA37] 0.5 mM): 0.002372 min⁻¹; kobs ([10]; [CA37] 1 mM): 0.004177 min⁻¹; kobs ([10]; [CA37] 2 mM): 0.005626 min⁻¹; pKd [10, 11]: 2.92; k2 [10, 11]: 0.009427 min⁻¹ |
